Test results from ChEMBL document CHEMBL2062491, “Absolute structures of monoterpenoids with a δ-lactone-containing skeleton from Ligularia hodgsonii” (J Nat Prod, 2012).

Tests used:
Assay type in all cases: functional, cell-based
HL-60 = assay: Cytotoxicity against human HL60 cells after 48 hrs by SRB assay
SMMC-7721 = assay: Cytotoxicity against human SMMC7721 cells after 48 hrs by SRB assay
HeLa = assay: Cytotoxicity against human HeLa cells after 48 hrs by SRB assay

In the case of `COC(=O)[C@]1(C)OC(=O)[C@]2(C[C@H]1C)O[C@@H]2C` [LIGUHODGCINS B], the IC50 (HL-60; hl-60) is reported as 151 µM, the IC50 (SMMC-7721; smmc-7721) is reported as 162 µM and the IC50 (HeLa; hela) is reported as 168 µM.

In the case of `CO[C@@]12[C@H](COC(N)=O)C3=C(C(=O)C(C)=C(N)C3=O)N1C[C@@H]1N[C@@H]12` [MITOMYCIN], the IC50 (HL-60; Homo sapiens, HL-60, 48 h, read-out: IC50) is reported as 1.8 µM, the IC50 (SMMC-7721; Homo sapiens, SMMC-7721, 48 h, read-out: IC50) is reported as 5.6 µM and the IC50 (HeLa; Homo sapiens, HeLa, 48 h, read-out: IC50) is reported as 3.4 µM.

`COC(=O)[C@]1([C@H](C)Cl)C[C@@H](C)[C@@](C)(OC(C)=O)C(=O)O1` [LIGUHODGCINS A] showed an IC50 (HL-60; hl-60) of 141 µM, an IC50 (SMMC-7721; smmc-7721) of 156 µM and an IC50 (HeLa; hela) of 171 µM.
